SMILES strings stand for the structures. Where a SMILES comes first, the peptide text is derived from it.

The experiment deals with HLA B*0801 (Homo sapiens, UniProt P01889, A93T/A95T/D138N/E176V/E187T/K202T/Q94N/R180D/S35A/V36M/Y33D/Y91F). The experiment can be described thus: biochemical. Format: binding.

For `CC(C)C[C@H](NC(=O)[C@@H](NC(=O)[C@@H](NC(=O)[C@H](CC(N)=O)NC(=O)[C@H](Cc1ccccc1)NC(=O)[C@H](CC(C)C)NC(=O)[C@H](CCCCN)NC(=O)[C@H](CC(C)C)NC(=O)[C@@H](N)CCC(=O)O)C(C)C)[C@@H](C)O)C(=O)O` [3102.0729] (H-ELKLFNVTL-OH), 4.7 nM corresponded to half-maximal inhibition (IC50). In turn, `CC[C@H](C)[C@H](NC(=O)[C@H](CC(C)C)NC(=O)[C@@H](N)CO)C(=O)N1CCC[C@H]1C(=O)N[C@@H](CCCNC(=N)N)C(=O)N[C@@H](CC(C)C)C(=O)N[C@H](C(=O)N[C@@H](CC(=O)O)C(=O)N[C@@H](Cc1ccccc1)C(=O)O)C(C)C` [3102.0730] (H-SLIPRLVDF-OH) yielded an IC50 of 13 nM. For `CSCC[C@H](NC(=O)[C@H](Cc1ccccc1)NC(=O)CNC(=O)[C@@H](N)[C@@H](C)O)C(=O)N[C@@H](CCCNC(=N)N)C(=O)N[C@@H](Cc1ccccc1)C(=O)N[C@@H](Cc1ccccc1)C(=O)N[C@@H](CCC(N)=O)C(=O)N[C@@H](CC(C)C)C(=O)O` [3102.0731] (H-TGFMRFFQL-OH) the value was 0.97 nM; for `CC[C@H](C)[C@H](NC(=O)[C@H](CCC(N)=O)NC(=O)[C@H](CCC(=O)O)NC(=O)[C@H](CCC(N)=O)NC(=O)[C@H](CCCNC(=N)N)NC(=O)[C@H](CCCNC(=N)N)NC(=O)[C@H](CCSC)NC(=O)CNC(=O)[C@@H](N)CO)C(=O)O` [3102.0733] (H-SGMRRQEQI-OH), 17 nM; for `CC(C)C[C@H](NC(=O)[C@H](CO)NC(=O)CNC(=O)[C@@H]1CCCN1C(=O)[C@H](CCCNC(=N)N)NC(=O)[C@H](Cc1ccccc1)NC(=O)[C@H](CCCCN)NC(=O)[C@H](Cc1ccccc1)NC(=O)[C@@H](N)CO)C(=O)O` [3102.0734] (H-SFKFRPGSL-OH), 3 nM. As for `CC[C@H](C)[C@H](NC(=O)[C@H](CC(=O)O)NC(=O)[C@H](CC(N)=O)NC(=O)[C@@H](NC(=O)[C@H](CCCCN)NC(=O)[C@@H](NC(=O)[C@H](CCCCN)NC(=O)[C@@H]1CCCN1C(=O)[C@@H](N)CCCNC(=N)N)[C@@H](C)CC)[C@@H](C)O)C(=O)O` [3102.0737] (H-RPKIKTNDI-OH), the figure is 2.1 nM; as for `CSCC[C@H](NC(=O)[C@H](CCCCN)NC(=O)[C@@H](N)CCC(=O)O)C(=O)N[C@@H](CCCNC(=N)N)C(=O)N[C@@H](CCCNC(=N)N)C(=O)N[C@@H](CCC(=O)O)C(=O)N[C@@H](CCCNC(=N)N)C(=O)N[C@@H](C)C(=O)N[C@@H](C)C(=O)O` [3102.0739] (H-EKMRRERAA-OH), 1.8 nM; as for `CC[C@H](C)[C@H](NC(=O)[C@H](CCCNC(=N)N)NC(=O)[C@@H](NC(=O)[C@H](CCCCN)NC(=O)[C@H](CC(C)C)NC(=O)[C@@H](N)CCCNC(=N)N)[C@@H](C)O)C(=O)N[C@@H](CCCNC(=N)N)C(=O)N[C@@H](CC(N)=O)C(=O)N[C@@H](CC(C)C)C(=O)O` [3102.0740] (H-RLKTRIRNL-OH), 0.69 nM. As for `CC[C@H](C)[C@H](NC(=O)[C@H](CCCNC(=N)N)NC(=O)[C@@H](NC(=O)[C@H](CCCCN)NC(=O)[C@H](CCCCN)NC(=O)[C@@H](N)CO)[C@@H](C)O)C(=O)N[C@@H](CO)C(=O)N[C@@H](CC(=O)O)C(=O)N[C@@H](CC(C)C)C(=O)O` [3102.0741] (H-SKKTRISDL-OH), the figure is 2.8 nM. Molecule `CC(C)C[C@H](NC(=O)[C@H](CCC(=O)O)NC(=O)[C@@H](NC(=O)[C@H](CC(C)C)NC(=O)[C@H](CCCCN)NC(=O)[C@H](CCCNC(=N)N)NC(=O)[C@H](CCCCN)NC(=O)[C@H](C)NC(=O)[C@@H](N)CCC(=O)O)[C@@H](C)O)C(=O)O` [3102.0742] (H-EAKRKLTEL-OH) registered an IC50 of 2.5 nM. Molecule `CC[C@H](C)[C@H](NC(=O)[C@H](CCCNC(=N)N)NC(=O)[C@H](CO)NC(=O)[C@H](CCCNC(=N)N)NC(=O)[C@H](CC(C)C)NC(=O)[C@H](C)N)C(=O)N[C@@H](CCCNC(=N)N)C(=O)N[C@@H](CCC(=O)O)C(=O)N[C@@H](CC(C)C)C(=O)O` [3102.0743] (H-ALRSRIREL-OH) registered an IC50 of 0.46 nM. As for `CSCC[C@H](NC(=O)[C@H](CC(N)=O)NC(=O)[C@H](Cc1ccccc1)NC(=O)[C@H](Cc1ccccc1)NC(=O)[C@H](CCCNC(=N)N)NC(=O)[C@H](CO)NC(=O)[C@H](CC(C)C)NC(=O)[C@H](CC(C)C)NC(=O)[C@H](C)N)C(=O)O` [3102.0744] (H-ALLSRFFNM-OH), the figure is 3 nM; as for `CC(C)C[C@H](NC(=O)[C@H](Cc1ccc(O)cc1)NC(=O)[C@@H](NC(=O)[C@H](Cc1ccccc1)NC(=O)[C@H](CCCCN)NC(=O)[C@H](CC(C)C)NC(=O)[C@H](CC(C)C)NC(=O)[C@H](C)NC(=O)[C@@H](N)Cc1ccccc1)[C@@H](C)O)C(=O)O` [3102.0745] (H-FALLKFTYL-OH), 1.6 nM. As for `CC(C)C[C@H](NC(=O)[C@@H](NC(=O)[C@H](CCCCN)NC(=O)[C@H](Cc1ccccc1)NC(=O)[C@H](CCCCN)NC(=O)[C@@H](NC(=O)[C@H](CC(N)=O)NC(=O)[C@H](CC(C)C)NC(=O)[C@@H](N)CO)[C@@H](C)O)[C@@H](C)O)C(=O)O` [3102.0746] (H-SLNTKFKTL-OH), the figure is 8.7 nM.

In turn, `CC(C)C[C@H](NC(=O)[C@H](CC(N)=O)NC(=O)[C@@H](NC(=O)[C@H](CC(C)C)NC(=O)[C@H](CCCNC(=N)N)NC(=O)[C@H](CCC(N)=O)NC(=O)[C@H](CCCCN)NC(=O)[C@H](CC(C)C)NC(=O)[C@@H](N)[C@@H](C)O)[C@@H](C)O)C(=O)O` [3102.0747] (H-TLKQRLTNL-OH) had an IC50 of 1.7 nM. Consider `CSCC[C@H](NC(=O)[C@H](CC(N)=O)NC(=O)[C@@H](N)CCC(=O)O)C(=O)N[C@@H](CC(C)C)C(=O)N[C@@H](CCCNC(=N)N)C(=O)N[C@@H](CO)C(=O)N[C@@H](CCSC)C(=O)N1CCC[C@H]1C(=O)N[C@H](C(=O)O)C(C)C` [3102.0748] (H-ENMLRSMPV-OH), for which the IC50 was 0.21 nM. As for `CSCC[C@H](NC(=O)[C@H](CCCNC(=N)N)NC(=O)[C@H](Cc1ccccc1)NC(=O)[C@@H]1CCCN1C(=O)[C@H](CCSC)NC(=O)[C@H](CCCCN)NC(=O)[C@H](CC(C)C)NC(=O)[C@@H](N)CC(C)C)C(=O)N[C@H](C(=O)O)C(C)C` [3102.0749] (H-LLKMPFRMV-OH), the concentration for half-maximal inhibition (IC50) amounted to 7.1 nM. Consider `CC(C)C[C@H](NC(=O)[C@@H](NC(=O)[C@H](CO)NC(=O)[C@H](Cc1ccccc1)NC(=O)[C@H](CC(C)C)NC(=O)[C@H](CO)NC(=O)[C@H](CC(C)C)NC(=O)[C@H](CC(C)C)NC(=O)[C@@H](N)Cc1ccc(O)cc1)[C@@H](C)O)C(=O)O` [3102.0750] (H-YLLSLFSTL-OH), for which the IC50 came to 4 nM. As for `CSCC[C@H](N)C(=O)N[C@@H](CC(C)C)C(=O)N[C@@H](CC(C)C)C(=O)N[C@@H](CCCCN)C(=O)N[C@@H](CCCCN)C(=O)N[C@@H](CC(C)C)C(=O)N[C@@H](CC(N)=O)C(=O)N[C@@H](CO)C(=O)N[C@@H](Cc1ccccc1)C(=O)O` [3102.0753] (H-MLLKKLNSF-OH), the figure is 0.57 nM. For `CC(C)C[C@H](NC(=O)[C@H](CO)NC(=O)[C@H](C)NC(=O)[C@H](Cc1ccccc1)NC(=O)[C@H](CCCCN)NC(=O)[C@H](C)NC(=O)[C@H](Cc1ccc(O)cc1)NC(=O)[C@@H](NC(=O)[C@@H](N)[C@@H](C)O)C(C)C)C(=O)O` [3102.0754] (H-TVYAKFASL-OH) the value was 1.6 nM; for `CC(C)C[C@H](NC(=O)[C@H](CCCNC(=N)N)NC(=O)[C@H](Cc1c[nH]cn1)NC(=O)[C@H](CC(C)C)NC(=O)[C@H](Cc1ccc(O)cc1)NC(=O)[C@H](CCCNC(=N)N)NC(=O)[C@H](CCCNC(=N)N)NC(=O)[C@@H]1CCCN1C(=O)[C@@H](N)CS)C(=O)O` [3102.0755] (H-CPRRYLHRL-OH), 2.7 nM; for `CC[C@H](C)[C@H](NC(=O)[C@@H](NC(=O)[C@H](C)N)[C@@H](C)O)C(=O)N[C@@H](CCC(N)=O)C(=O)N[C@@H](CCCNC(=N)N)C(=O)N[C@@H](Cc1ccccc1)C(=O)N[C@@H](CO)C(=O)N[C@@H](CO)C(=O)N[C@@H](CC(C)C)C(=O)O` [3102.0756] (H-ATIQRFSSL-OH), 3.3 nM. As for `CC[C@H](C)[C@H](NC(=O)[C@H](Cc1c[nH]cn1)NC(=O)[C@H](C)NC(=O)[C@H](Cc1ccc(O)cc1)NC(=O)[C@H](CC(C)C)NC(=O)[C@@H](N)CC(C)C)C(=O)N[C@@H](CC(N)=O)C(=O)N[C@@H](C)C(=O)N[C@@H](CC(C)C)C(=O)O` [3102.0757] (H-LLYAHINAL-OH), the IC50 turned out to be 1.4 nM. This IC50 is about 2.4-fold lower than that of the molecule before. As for `N=C(N)NCCC[C@H](NC(=O)[C@H](CCCNC(=N)N)NC(=O)[C@@H](N)CC(=O)O)C(=O)N[C@@H](CO)C(=O)N[C@@H](Cc1ccccc1)C(=O)N[C@@H](Cc1ccccc1)C(=O)N[C@@H](CCCCN)C(=O)N[C@@H](CS)C(=O)N[C@@H](Cc1ccccc1)C(=O)O` [3102.0758] (H-DRRSFFKCF-OH), the figure is 76 nM. In the case of `CC(C)[C@H](NC(=O)[C@H](Cc1ccc(O)cc1)NC(=O)[C@H](CCCNC(=N)N)NC(=O)[C@H](Cc1ccccc1)NC(=O)[C@H](CS)NC(=O)[C@H](CCCCN)NC(=O)[C@H](Cc1ccccc1)NC(=O)[C@@H](N)Cc1ccccc1)C(=O)N[C@@H](Cc1ccccc1)C(=O)O` [3102.0760] (H-FFKCFRYVF-OH), inhibition was half-maximal at 11 nM (IC50). As for `CSCC[C@H](NC(=O)CNC(=O)[C@@H](N)CO)C(=O)N[C@H](C(=O)N[C@@H](Cc1ccccc1)C(=O)N[C@H](C(=O)N[C@@H](CO)C(=O)N1CCC[C@H]1C(=O)N[C@H](C(=O)O)C(C)C)[C@@H](C)O)C(C)C` [3102.0762] (H-SGMVFTSPV-OH), the figure is 77 nM; as for `CC(C)C[C@H](NC(=O)[C@@H](N)Cc1c[nH]cn1)C(=O)N[C@@H](CCCCN)C(=O)N[C@@H](Cc1c[nH]cn1)C(=O)N[C@@H](Cc1c[nH]cn1)C(=O)N[C@@H](CCCCN)C(=O)N[C@@H](CCC(N)=O)C(=O)N[C@@H](CS)C(=O)N[C@H](C(=O)O)C(C)C` [3102.0763] (H-HLKHHKQCV-OH), 4.5 nM. The molecule `CC(C)C[C@H](NC(=O)[C@@H]1CCCN1C(=O)[C@H](CS)NC(=O)[C@H](CCCNC(=N)N)NC(=O)[C@H](CCCNC(=N)N)NC(=O)[C@H](CCCNC(=N)N)NC(=O)[C@H](CC(C)C)NC(=O)[C@H](Cc1ccccc1)NC(=O)[C@@H](N)CC(C)C)C(=O)O` [3102.0764] (H-LFLRRRCPL-OH) gave an IC50 of 0.13 nM.

As usually defined, the IC50 is the concentration that inhibits the measured activity by half. A lower IC50 goes with greater potency in that assay.

The record behind these values is paper PMC2248166, “Quantitative peptide binding motifs for 19 human and mouse MHC class I molecules derived using positional scanning combinatorial peptide libraries” (Immunome Research, 2008).
